The assay has as its target T1, RORγ-LBD (Homo sapiens, UniProt P51449).
T1 construct: HIS-tagged RORγ-LBD was recombinantly expressed in SF9 cells; made in house; host or cells: SF9 cells (baculovirus); unpurified lysate
T1 sequence (P51449 269-508 limits assumed): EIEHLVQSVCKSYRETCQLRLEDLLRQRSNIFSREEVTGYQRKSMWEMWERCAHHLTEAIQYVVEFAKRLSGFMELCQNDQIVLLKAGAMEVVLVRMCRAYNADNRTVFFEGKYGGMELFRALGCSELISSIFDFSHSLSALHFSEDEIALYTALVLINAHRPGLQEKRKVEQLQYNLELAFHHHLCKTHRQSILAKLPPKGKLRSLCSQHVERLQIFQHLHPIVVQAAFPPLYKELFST
As to the kind of experiment: RORγ-Ligand Binding Domain TR-FRET Assay. It is filed as biochemical. As to the method:
HIS-tagged RORγ-LBD was recombinantly expressed in SF9 cells using a baculovirus expression system. The protein was not purified. Cells were lysed and the lysate was used as a source for RORγ-LBD for the assay. A 1:80 dilution of RORγ-LBD lysate in assay buffer (25 mM HEPES pH 7.0, 100 mM NaCl, 0.01% Tween, 0.1% BSA) was prepared and 5 μL was added to each well (RORγ-LBD final concentration ˜10 nM). Control wells received lysate from SF9 cells not expressing RORγ-LBD.
Compounds to be tested were diluted to 100× final test concentration in DMSO and further diluted to 4× final test concentration using assay buffer to provide the test compound mixture. An aliquot (5 μL) of the test compound mixture was added to each well.
A 4× stock of biotinylated-LXXLL peptide from SRC1-2 (Biotin-[…]) was prepared in assay buffer and a 5 μL aliquot added to each well (450 nM final concentration). A 4× solution of europium tagged anti-HIS antibody (2 nM final concentration) and APC conjugated streptavidin (60 nM final concentration) were prepared and a 5 μL aliquot added to each well.
The final assay mixture was incubated for 4 hours to overnight, and the fluorescence signal was measured on an Envision plate reader: (Excitation filter=340 nm; APC emission=665 nm; Europium emission=615 nm; dichroic mirror=D400/D630; delay time=100 μs, integration time=200 μs).
IC50 values for test compounds were calculated from the quotient of the fluorescence signal at 665 nm divided by the fluorescence signal at 615 nm using GraphPad Prism software.
(In general: Time-resolved FRET reads energy transfer from a long-lived donor to a nearby acceptor.)

For orientation: IC50 means the point on the concentration scale where inhibition reaches its midpoint. Read a low IC50 as inhibition by little substance. For `C=Cc1nn(S(=O)(=O)c2cccc(C(F)(F)F)c2)c2cc(NC(=O)c3c(F)cccc3Cl)ccc12` [Compound 9, 2-Chloro-6-fluoro-N-[1-(3-trifluoromethylbenzenesulfonyl)-3-vinyl-1H-indazol-6-yl]benzamide], where the note is “Table 8, indazoles”, the IC50 is under 15 µM.
With `O=C(Nc1ccc2c(C(O)CO)nn(S(=O)(=O)c3cccc(C(F)(F)F)c3)c2c1)c1c(F)cccc1Cl` (centres unmarked) [Compound 10, 2-Chloro-N-[3-(1,2-dihydroxyethyl)-1-(3-trifluoromethylbenzenesulfonyl)-1H-indazol-6-yl]-6-fluorobenzamide], where the note is “Table 8, indazoles”, the IC50 is under 15 µM.
On to `O=C(Nc1ccc2c(CO)nn(S(=O)(=O)c3cccc(C(F)(F)F)c3)c2c1)c1c(F)cccc1Cl` [Compound 11, 2-Chloro-6-fluoro-N-[3-hydroxymethyl-1-(3-trifluoromethylbenzene-sulfonyl)-1H-indazol-6-yl]benzamide], for which the IC50 (Table 8, indazoles) is under 15 µM.
`CNCC1CN(S(=O)(=O)c2ccc(F)cc2)c2cc(NC(=O)c3c(F)cccc3Cl)ccc2O1` (centres unmarked) [Compound 14] gave an IC50 (benzoxazines, Table 9) of under 15 µM.
On the same count and under the same terms, under `O=C(Nc1ccc2c(c1)N(S(=O)(=O)c1ccc(F)cc1)CCO2)c1c(F)cccc1Cl` [Compound 17, 2-Chloro-6-fluoro-N-(4-((4-fluorophenyl)sulfonyl)-3,4-dihydro-2H-benzo[b][1,4]oxazin-6-yl)benzamide] stands over 15 µM; under `O=C(Nc1ccc2c(c1)N(S(=O)(=O)c1ccc(F)cc1)C[C@H](CO)O2)c1c(F)cccc1Cl` [Compound 18, (R)-2-Chloro-6-fluoro-N-(4-((4-fluorophenyl)sulfonyl)-2-(hydroxymethyl)-3,4-dihydro-2H-benzo[b][1,4]oxazin-6-yl)benzamide], over 15 µM; under `N#CC[C@H]1CN(S(=O)(=O)c2ccc(F)cc2)c2cc(NC(=O)c3c(F)cccc3Cl)ccc2O1` [Compound 19, (S)-2-Chloro-N-(2-(cyanomethyl)-4-((4-fluorophenyl)sulfonyl)-3,4-dihydro-2H-benzo[b][1,4]oxazin-6-yl)-6-fluorobenzamide], under 15 µM.
On the same count and under the same terms, as for `O=C(Nc1ccc2c(c1)N(S(=O)(=O)c1ccc(F)cc1)C(CO)CO2)c1c(F)cccc1Cl` (centres unmarked) [Compound 23, 2-Chloro-6-fluoro-N-[4-(4-fluorobenzenesulfonyl)-3-hydroxymethyl-3,4-dihydro-2H-benzo[1,5]oxazin-6-yl]benzamide], the figure is under 15 µM.
With `Cc1cccc(F)c1C(=O)Nc1ccc2cnn(S(=O)(=O)c3cccc(C(F)(F)F)c3)c2c1` [Compound V-1], where the note is “Table 8, indazoles”, the IC50 is under 15 µM.
Same read-out and setting: as for `Cc1ncc(CC(=O)Nc2ccc3cnn(S(=O)(=O)c4cccc(C(C)(C)C)c4)c3c2)s1` [Compound V-2], the figure is under 15 µM.
Take `Cc1ncc(CC(=O)Nc2ccc3cnn(S(=O)(=O)c4cccc(OC(F)F)c4)c3c2)s1` [Compound V-3]: the IC50 (Table 8, indazoles) is under 15 µM.
Consider `CC(=O)c1cccc(S(=O)(=O)n2ncc3ccc(NC(=O)Cc4cnc(C)s4)cc32)c1` [Compound V-4], for which, where the note is “Table 8, indazoles”, the IC50 was under 15 µM.
The same measure, in the same setting: under `Cc1cccc(S(=O)(=O)n2ncc3ccc(NC(=O)Cc4cnc(C)s4)cc32)c1` [Compound V-5] stands under 15 µM; under `Cc1ncc(CC(=O)Nc2ccc3cnn(S(=O)(=O)c4cccc(Cl)c4)c3c2)s1` [Compound V-6], under 15 µM; under `COc1cccc(S(=O)(=O)n2ncc3ccc(NC(=O)Cc4cnc(C)s4)cc32)c1` [Compound V-7], under 15 µM.
Same read-out and setting: as for `Cc1cccc(Cl)c1C(=O)Nc1ccc2cnn(S(=O)(=O)c3cccc(C(F)(F)F)c3)c2c1` [Compound V-8], the figure is under 15 µM.
Still for that read-out and setting: under `N#Cc1nn(S(=O)(=O)c2cccc(C(F)(F)F)c2)c2cc(NC(=O)c3c(F)cccc3Cl)ccc12` [Compound V-9] stands under 15 µM; under `Cc1cccc(S(=O)(=O)n2nc(-c3ccc(C(=O)O)cc3)c3ccc(NC(=O)c4c(F)cccc4Cl)cc32)c1` [Compound V-10], under 15 µM; under `CC(C)(C)c1cccc(S(=O)(=O)n2ncc3ccc(NC(=O)c4c(F)cccc4C(F)(F)F)cc32)c1` [Compound V-11], under 15 µM.
For the setting “Table 8, indazoles”, `CC(=O)c1cccc(S(=O)(=O)n2ncc3ccc(NC(=O)c4c(F)cccc4C(F)(F)F)cc32)c1` [Compound V-12] displayed an IC50 of under 15 µM.
Same read-out and setting: under `Cc1nn(C(F)F)cc1S(=O)(=O)n1ncc2ccc(NC(=O)c3c(F)cccc3F)cc21` [Compound V-13] stands under 15 µM; under `Cc1nn(C(F)F)cc1S(=O)(=O)n1ncc2ccc(NC(=O)Cc3cc(F)cc(F)c3)cc21` [Compound V-14], under 15 µM; under `CC(=O)c1cccc(S(=O)(=O)n2ncc3ccc(NC(=O)Cc4cc(F)cc(F)c4)cc32)c1` [Compound V-15], under 15 µM.
Molecule `COc1cccc(S(=O)(=O)n2ncc3ccc(NC(=O)Cc4cc(F)cc(F)c4)cc32)c1` [Compound V-16] registered an IC50 (Table 8, indazoles) of under 15 µM.
On the same count and under the same terms, as for `Cc1nn(C(F)F)cc1S(=O)(=O)n1ncc2ccc(NC(=O)Cc3ccc(F)c(F)c3)cc21` [Compound V-17], the figure is under 15 µM; as for `O=C(Cc1ccc(F)c(F)c1)Nc1ccc2cnn(S(=O)(=O)c3cccc(OC(F)F)c3)c2c1` [Compound V-18], under 15 µM; as for `CC(=O)c1cccc(S(=O)(=O)n2ncc3ccc(NC(=O)Cc4ccc(F)c(F)c4)cc32)c1` [Compound V-19], under 15 µM.
As for `Cc1cccc(S(=O)(=O)n2ncc3ccc(NC(=O)Cc4ccc(F)c(F)c4)cc32)c1` [Compound V-20], the IC50 (Table 8, indazoles) is under 15 µM.
On the same count and under the same terms, under `Cc1nn(C(F)F)cc1S(=O)(=O)n1ncc2ccc(NC(=O)c3c(Cl)cccc3C(F)(F)F)cc21` [Compound V-21] stands under 15 µM; under `Cc1nn(C(F)F)cc1S(=O)(=O)n1ncc2ccc(NC(=O)Cc3ccc(F)cc3)cc21` [Compound V-22], under 15 µM.
`CC(C)(C)c1cccc(S(=O)(=O)n2ncc3ccc(NC(=O)Cc4ccc(F)cc4)cc32)c1` [Compound V-23] gave an IC50 (Table 8, indazoles) of under 15 µM.
The same measure, in the same setting: as for `CC(=O)c1cccc(S(=O)(=O)n2ncc3ccc(NC(=O)Cc4ccc(F)cc4)cc32)c1` [Compound V-24], the figure is under 15 µM.
The same measure, in the same setting: under `Cc1cccc(S(=O)(=O)n2ncc3ccc(NC(=O)Cc4ccc(F)cc4)cc32)c1` [Compound V-25] stands under 15 µM.
Still for that read-out and setting: as for `COc1cccc(S(=O)(=O)n2ncc3ccc(NC(=O)Cc4ccc(F)cc4)cc32)c1` [Compound V-26], the figure is under 15 µM; as for `Cc1nn(C(F)F)cc1S(=O)(=O)n1ncc2ccc(NC(=O)Cc3ccc(Cl)cc3)cc21` [Compound V-27], under 15 µM; as for `CC(C)(C)c1cccc(S(=O)(=O)n2ncc3ccc(NC(=O)Cc4ccc(Cl)cc4)cc32)c1` [Compound V-28], under 15 µM.
Regarding `O=C(Cc1ccc(Cl)cc1)Nc1ccc2cnn(S(=O)(=O)c3cccc(OC(F)F)c3)c2c1` [Compound V-29], the IC50 (Table 8, indazoles) was under 15 µM.
Consider `CC(=O)c1cccc(S(=O)(=O)n2ncc3ccc(NC(=O)Cc4ccc(Cl)cc4)cc32)c1` [Compound V-30], for which the IC50 (Table 8, indazoles) was under 15 µM.
Consider `Cc1cccc(S(=O)(=O)n2ncc3ccc(NC(=O)Cc4ccc(Cl)cc4)cc32)c1` [Compound V-31], for which the IC50 (Table 8, indazoles) was under 15 µM.
On the same count and under the same terms, under `COc1cccc(S(=O)(=O)n2ncc3ccc(NC(=O)Cc4ccc(Cl)cc4)cc32)c1` [Compound V-32] stands under 15 µM; under `O=C(Nc1ccc2cnn(S(=O)(=O)c3ccc(F)c(C(F)(F)F)c3)c2c1)c1c(Cl)cccc1C(F)(F)F` [Compound V-33], under 15 µM.

The values above are taken from patent publication US9512111B2, “N-sulfonylated tetrahydroquinolines and related bicyclic compounds for inhibition of RORγ activity and the treatment of disease” (Lycera Corporation, priority 2010, dated 2016).
